Experiments:
[1] = molecular target: T1, Calmodulin-domain protein kinase 1 (Toxoplasma gondii, UniProt Q9BJF5)
T1 sequence (Q9BJF5 whole entry): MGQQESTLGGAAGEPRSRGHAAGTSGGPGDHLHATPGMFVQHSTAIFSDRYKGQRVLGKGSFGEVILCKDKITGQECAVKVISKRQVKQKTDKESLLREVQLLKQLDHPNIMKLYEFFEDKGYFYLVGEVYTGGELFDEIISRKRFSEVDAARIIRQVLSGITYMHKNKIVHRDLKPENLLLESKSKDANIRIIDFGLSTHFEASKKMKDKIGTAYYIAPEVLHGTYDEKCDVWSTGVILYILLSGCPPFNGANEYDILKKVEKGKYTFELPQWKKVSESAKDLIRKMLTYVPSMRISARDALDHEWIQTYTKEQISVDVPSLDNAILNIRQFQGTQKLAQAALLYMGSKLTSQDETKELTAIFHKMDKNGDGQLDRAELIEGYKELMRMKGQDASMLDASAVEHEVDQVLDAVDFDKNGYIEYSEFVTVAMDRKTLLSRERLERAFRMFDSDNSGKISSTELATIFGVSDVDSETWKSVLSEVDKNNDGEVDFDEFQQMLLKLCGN

[2] = Inhibition of recombinant Plasmodium falciparum CDPK4 S147M mutant using Syntide 2 as substrate assessed as decrease in depletion of ATP by Kinase glo luciferase assay
[3] = Cytotoxicity against human CRL8155 cells assessed as growth inhibition after 48 to 72 hrs by Alamar blue assay; assay type: toxicity, cell-based
[4] = Cytotoxicity against human HepG2 cells assessed as growth inhibition after 48 to 72 hrs by Alamar blue assay; assay type: toxicity, cell-based
Plasmodium falciparum [5] = test: Inhibition of male gametocytes exflagellation of Plasmodium falciparum at 1 uM relative to control; assay type: functional
Plasmodium falciparum [6] = test: microbe, parasite or virus in culture; conditions: read-out: INH
[7] = molecular target: Proto-oncogene tyrosine-protein kinase Src (Homo sapiens, UniProt P12931)
Sequence of Proto-oncogene tyrosine-protein kinase Src (P12931 2-536 limits assumed): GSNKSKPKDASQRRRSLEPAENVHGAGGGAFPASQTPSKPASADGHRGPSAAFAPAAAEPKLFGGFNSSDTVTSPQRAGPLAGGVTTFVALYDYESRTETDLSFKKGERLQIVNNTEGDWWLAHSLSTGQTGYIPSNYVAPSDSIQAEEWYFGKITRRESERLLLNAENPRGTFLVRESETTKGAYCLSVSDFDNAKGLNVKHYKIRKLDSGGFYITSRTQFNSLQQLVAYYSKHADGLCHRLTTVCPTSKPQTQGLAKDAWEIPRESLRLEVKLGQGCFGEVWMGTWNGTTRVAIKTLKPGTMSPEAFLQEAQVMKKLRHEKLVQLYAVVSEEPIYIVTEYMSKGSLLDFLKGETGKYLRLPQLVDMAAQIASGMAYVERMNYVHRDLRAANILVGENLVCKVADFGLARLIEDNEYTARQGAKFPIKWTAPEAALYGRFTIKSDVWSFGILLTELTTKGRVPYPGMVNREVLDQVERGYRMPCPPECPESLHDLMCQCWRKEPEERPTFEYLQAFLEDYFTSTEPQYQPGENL

SMILES | IC50 [1] [nM] | IC50 [2] [nM] | EC50 [3] [nM] | EC50 [4] [nM] | inhibition at 1 µM (Plasmodium falciparum [5]) [%] | inhibition at 0.1 µM (Plasmodium falciparum [6]) [%] | IC50 [7] [nM]
CCOc1ccc2cc(-c3nn(C(C)C)c(N)c3C(N)=O)ccc2n1 | 7 |  |  |  |  |  | 
CCOc1ccc2cc(-c3nn(C(C)C)c(N)c3C(N)=O)cnc2c1 |  | > 2000 | > 30000 | > 30000 | 87 |  | 
CCOc1ccc2cc(-c3nn(C(C)(C)C)c(N)c3C(N)=O)cnc2c1 |  | > 2000 | > 30000 | > 30000 |  |  | 
COc1ccc2cc(-c3nn(C(C)(C)C)c(N)c3C(N)=O)cnc2c1 |  | > 2000 | > 30000 | > 30000 | 87 |  | 
CCOc1ccc2cc(-c3nn(C4CCCCC4)c(N)c3C(N)=O)ccc2n1 | 6 | > 2000 | > 30000 | > 30000 | 87 | 39 | 
NC(=O)c1c(-c2ccc3ccccc3c2)nn(CC(F)(F)F)c1N |  | > 2000 | > 30000 | > 30000 | 87 |  | 
CC(C)(C)n1nc(-c2cnc3cc(OC4CC4)ccc3c2)c(C(N)=O)c1N |  | > 2000 | > 30000 | > 30000 |  |  | 
CCOc1ccc2cc(-c3nn(C(C)(C)C)c(N)c3C(N)=O)ccc2c1 |  | > 2000 | > 30000 | > 30000 | 87 |  | 
CCOc1ccc2cc(-c3nn(C4CCOC4)c(N)c3C(N)=O)cnc2c1 (stereo unspecified) | 12 |  |  |  |  |  | > 10000
CC(C)(C)n1nc(-c2ccc3nc(OC4CC4)ccc3c2)c(C(N)=O)c1N | 5 |  |  |  |  |  | 
CC(C)n1nc(-c2ccc3nc(OC4CCC4)ccc3c2)c(C(N)=O)c1N | 8 | > 2000 | > 30000 | > 30000 | 87 |  | 
CCOc1ccc2cc(-c3nn(CC(C)(C)CO)c(N)c3C(N)=O)cnc2c1 |  | > 2000 | > 30000 | > 30000 | 87 | 81 | > 10000
CCOc1ccc2cc(-c3nn(C(C)C(C)C)c(N)c3C(N)=O)cnc2c1 (stereo unspecified) | 18 |  |  |  |  |  | 
CCOc1ccc2cc(-c3nn(C(C)C4CC4)c(N)c3C(N)=O)cnc2c1 (stereo unspecified) | 14 |  |  |  |  |  | 
CC(C)(C)n1nc(-c2ccc3cc(O)ccc3c2)c(C(N)=O)c1N |  | > 2000 | > 30000 | > 30000 | 87 | 64 | 
CCOc1ccc2cc(-c3nn(C(C)C(C)(C)CO)c(N)c3C(N)=O)cnc2c1 (stereo unspecified) | 24 |  |  |  |  |  | 

Source: ChEMBL document CHEMBL3864161, “5-Aminopyrazole-4-carboxamide analogues are selective inhibitors of Plasmodium falciparum microgametocyte exflagellation and potential malaria transmission blocking agents” (Bioorg Med Chem Lett, 2016)
